Consider seven molecules from ChEMBL document CHEMBL1128318, “Synthesis of novel 2,4-diaminopyrrolo-[2,3-d]pyrimidines with antioxidant, neuroprotective, and antiasthma activity” (J Med Chem, 1995).

Series [1] is filed under the species Rattus norvegicus. The series can be described thus: The compound was tested for inhibition of [Fe2+]-induced MDA formation in rat brain homogenate. Type of series: functional.
Series [2] is described as follows: The compound was tested for cytoprotective effect against the human astroglial cells. Type of series: functional, cell-based.
The species named for series [3] is Mus musculus. The series can be described thus: The compound was evaluated for increase in neurological status at 1 hr post head injury using a simple grip test in mouse. The series is classed as functional.
Series [4] can be described thus: Oral bioavailability in rat (Sprague-Dawley) (male). As to conditions: in vivo. The series is classed as ADME, organism-based.
Series [5] can be described thus: The compound was tested for Cmax value pharmacokinetic parameter in the male Sprague-Dawley rat. Type of series: ADME, organism-based. As to conditions: in vivo.
A short description of series [6]: The compound was tested for steady state volume of distribution pharmacokinetic parameter in the male Sprague-Dawley rat. Type of series: ADME, organism-based. As to conditions: in vivo.
Series [7] in a line: The compound was tested for tmax value pharmacokinetic parameter in the male Sprague-Dawley rat. Type of series: ADME, organism-based. As to conditions: in vivo.
The species named for series [8] is Mus musculus. The series is described as follows: The compound was tested for spinal neuroprotection in mouse. Type of series: functional, organism-based.
Series [9] is described as follows: The compound was tested for terminal half-life pharmacokinetic parameter in the male Sprague-Dawley rat. The series is classed as ADME, organism-based. As to conditions: in vivo.
Series [10] in a line: The compound was tested for systemic clearance pharmacokinetic parameter in the male Sprague-Dawley rat. Type of series: ADME, organism-based. As to conditions: in vivo.
The test system of series [11] is Mus musculus. The series can be described thus: The compound was tested for inhibition of lung eosinophilia in mouse at 30 mg/kg/day, po. The series is classed as functional.
Series [12] deals with Mus musculus. The series can be described thus: The compound was tested for inhibition of lung eosinophilia in mouse at 3 mg/kg/day, po. Type of series: functional.
Series [13] has as its system Mus musculus. The series is described as follows: The compound was tested for inhibition of lung eosinophilia in mouse at 10 mg/kg/day, po. The series is classed as functional.
For series [14], the system named is Rattus norvegicus. The series can be described thus: The compound was tested for inhibition of lung eosinophilia in rat at 30mg/kg/day, po. The series is classed as functional.
Series [15] has as its system Rattus norvegicus. The series is described as follows: The compound was tested for inhibition of lung eosinophilia in rat at 3 mg/kg/day, po. The series is classed as functional.
Series [16] concerns Rattus norvegicus. The series is described as follows: The compound was tested for inhibition of lung eosinophilia in rat at 10 mg/kg/day, po. Type of series: functional.
For series [17], the system named is Rattus norvegicus. The series is described as follows: The compound was tested for inhibition of lung eosinophilia in rat at 30 mg/kg/day, po. The series is classed as functional.
Series [18] concerns Rattus norvegicus. The series is described as follows: The compound was tested for inhibition of lung eosinophilia in rat at 3mg/kg/day, po. Type of series: functional.

For the molecule `Cn1c(-c2ccc(O)cc2)cc2c(N3CCCC3)nc(N3CCCC3)nc21`, the IC50 (in general, the concentration needed to halve the response being measured) is 1000 nM in the series listed under Rattus norvegicus [1] and 130 nM in the series listed under Mus musculus [8]. The half-maximal effective concentration (EC50) – broadly, the concentration giving half of the maximal effect – in series [2] turned out to be 200 nM. In the series filed under Mus musculus [3], this molecule gave a Score of 138%. Moreover, the bioavailability (as a rule, dose-corrected exposure relative to a reference, in per cent) in series [4] came out at 31.4%. Further, the Cmax – broadly, the highest concentration seen after dosing – in series [5] is 720 ng/mL. Besides, the Vd (usually the apparent volume that relates the amount in the body to the concentration in plasma or blood) in series [6] was found to be 66.2 L/kg. In series [7], the time to peak (Tmax) – broadly, the time from dosing to the highest level – was found to be 8 h. In addition, in series [9], the half-life (in general, the time needed for the level to fall by half in the phase considered) was 6.1 h. The clearance – broadly, the rate of elimination divided by the concentration – in series [10] was 38.8 mL/min/kg.
`Cn1c2c(c3c(N4CCCC4)nc(N4CCCC4)nc31)CCCC2`: the values for the inhibition in vivo at 30 mg/kg/day in the series with Mus musculus [11] and in the series on Rattus norvegicus [14] were 41% and 47%, respectively. For the same molecule, the inhibition in vivo (usually the share of the control response that was lost under treatment) at 3 mg/kg/day in the series with Mus musculus [12] came out at 0%; in the series with Rattus norvegicus [15] it was 72%. For the same molecule, the IC50 stood at 2000 nM in the series filed under Rattus norvegicus [1] and 340 nM in the series filed under Mus musculus [8]. Further, in the series with Mus musculus [13], the inhibition in vivo at 10 mg/kg/day worked out at 31%. The molecule also yielded a concentration giving a half-maximal response (EC50) in series [2] of 200 nM. For the same molecule, the Score in the series filed under Mus musculus [3] was 276%. This molecule also gave a bioavailability in [4] of 70.2%. For the same molecule, the maximum concentration (Cmax) in series [5] worked out at 40300 ng/mL. In addition, the Vd in series [6] amounted to 1.09 L/kg. For the same molecule, the time of peak concentration (Tmax) in [7] is 2 h. The molecule also gave a half-life in [9] of 8.9 h. For the same molecule, the clearance in series [10] was 1.67 mL/min/kg.
On to `Cn1c(-c2ccccc2)cc2c(N3CCCC3)nc(N3CCCC3)nc21`, for which the IC50 is 5000 nM in the series filed under Rattus norvegicus [1] and 1300 nM in the series filed under Mus musculus [8]. Further, a half-maximal response in [2] (EC50) required 900 nM. In the series listed under Mus musculus [3], this molecule showed a Score of 104%. This molecule had a bioavailability in [4] of 55.9%. For the same molecule, in [5], the peak level (Cmax) was 1420 ng/mL. The molecule also yielded a volume of distribution (Vd) in [6] of 44 L/kg. The time to peak (Tmax) in [7] was determined as 4 h. For the same molecule, in series [9], the half-life was 22.1 h. The same molecule showed a clearance in series [10] of 23.7 mL/min/kg.
As to `COc1ccc(-c2cc3c(N4CCCC4)nc(N4CCCC4)nc3n2C)cc1`, the values for the IC50 in the series filed under Rattus norvegicus [1] and in the series filed under Mus musculus [8] were 1000 nM and 3400 nM, respectively. In series [2], this molecule gave an EC50 of 400 nM. Further, the Score in the series listed under Mus musculus [3] came to 73%. This molecule gave a bioavailability in [4] of 59.8%. The Cmax in series [5] was determined as 600 ng/mL. The molecule further displayed a volume of distribution (Vd) in series [6] of 42.8 L/kg. Also, the time of peak concentration (Tmax) in [7] came to 4 h. Also, in [9], the half-life is 24.3 h. This molecule also showed a clearance in series [10] of 20.7 mL/min/kg.
Regarding `C1CCc2c(c3c(N4CCCC4)nc(N4CCCC4)nc3n2CCN2CCOCC2)C1`, the inhibition in vivo at 30 mg/kg/day in the series on Mus musculus [11] came out at 72%; in the series with Rattus norvegicus [14], 62%. The inhibition in vivo at 3 mg/kg/day in the series with Mus musculus [12] amounted to 37%; with Rattus norvegicus [15], 13%. Besides, the results for the inhibition in vivo at 10 mg/kg/day in the series on Mus musculus [13] and with Rattus norvegicus [16] were 56% and 30%, respectively. The molecule also showed a concentration for a half-maximal effect (EC50) in series [2] of 300 nM. The same molecule returned a Score in the series listed under Mus musculus [3] of 163%. The molecule further came in with a bioavailability in series [4] of 78.3%. In series [5], this molecule came in with a Cmax of 19400 ng/mL. This molecule also yielded a Vd in series [6] of 0.94 L/kg. The time of peak concentration (Tmax) in series [7] was determined as 2 h. In the series listed under Mus musculus [8], this molecule displayed an IC50 of 1100 nM. In [9], the half-life is 11.2 h. The molecule also gave a clearance in series [10] of 0.967 mL/min/kg.
Regarding `c1ccc2c(c1)c1c(N3CCCC3)nc(N3CCCC3)nc1n2CCN1CCOCC1`, the inhibition in vivo at 30 mg/kg/day in the series on Mus musculus [11] was found to be 71%; in the series with Rattus norvegicus [14], 85%. Further, the inhibition in vivo at 3 mg/kg/day in the series with Mus musculus [12] came to 53%. In addition, the inhibition in vivo at 10 mg/kg/day in the series on Mus musculus [13] stood at 62%; in the series on Rattus norvegicus [16] it was 87%. The molecule further displayed a concentration giving a half-maximal response (EC50) in [2] of 3000 nM. In addition, the bioavailability in series [4] came out at 69.9%. Besides, in series [5], the Cmax was found to be 14700 ng/mL. In addition, the Vd in series [6] stood at 1.92 L/kg. Also, the time to peak (Tmax) in [7] was 2 h. Besides, the IC50 in the series filed under Mus musculus [8] amounted to 10600 nM. This molecule also gave a half-life in series [9] of 15.7 h. Moreover, in series [10], the clearance was 2 mL/min/kg.
As for `Cc1cc2c(N3CCCC3)nc(N3CCCC3)nc2n1C`, the inhibition in vivo at 30 mg/kg/day in the series on Mus musculus [11] came out at 0%; with Rattus norvegicus [17], 28%. Besides, the inhibition in vivo at 3 mg/kg/day with Mus musculus [12] and in the series with Rattus norvegicus [18] was 0% in each case. For the same molecule, the IC50 in the series listed under Rattus norvegicus [1] turned out to be 1000 nM; in the series filed under Mus musculus [8], 7000 nM. Moreover, the values for the inhibition in vivo at 10 mg/kg/day in the series on Mus musculus [13] and in the series on Rattus norvegicus [16] were 0% and 27%, respectively. In series [2], this molecule yielded a half-maximal effective concentration (EC50) of 200 nM. In the series listed under Mus musculus [3], this molecule displayed a Score of 100%. This molecule also yielded a bioavailability in series [4] of 84.6%. The same molecule gave a Cmax in series [5] of 5710 ng/mL. The molecule also came in with a Vd in series [6] of 39.7 L/kg. Further, the Tmax in [7] was determined as 4 h. For the same molecule, the half-life in series [9] was 10.9 h. Besides, the clearance in series [10] was 8.83 mL/min/kg.
